{
  "source": "patent US6583150B1",
  "about": "“Pharmaceutical composition based on polyaromatic compounds” (Laboratorie L. Lafon, priority 1999, dated 2003)",
  "key": {"U-87MG": {"test_system": "U-87MG", "assay": "MTT cytotoxicity test, U-87MG", "type": "cell-based", "details": "Homo sapiens, U-87MG glioblastoma, 72 hours, read-out: concentrations flanking the IC50", "description": "(§1) The influence of the compounds of formulae I and II on neoplastic cells was evaluated using the MTT calorimetric test. The principle of the MTT test is based on the mitochondrial reduction by metabolically active live cells of the yellow-colored product MTT (3-(4,5-dimethylthiazol-2-yl)-2,5-diphenyltetrazolium bromide) to a blue-colored product, formazan. The amount of formazan thus obtained is directly proportional to the amount of live cells present in the culture well(s). This amount of formazan is measured by spectrophotometry.\n(§2) The cell lines are maintained in monolayer culture at 37° C. in stoppered culture dishes containing 25 MM HEPES MEM (Minimum Essential Medium) base medium. This medium, which is suitable for growing a range of varied diploid or primary mammalian cells, is then supplemented: […]\n(§3) with a an amount of 5% FCS (Fetal Calf Serum) decomplemented at 56° C. for 1 hour, with 0.6 mg/mL of L-glutamine, with 200 IU/mL of penicillin, with […] of streptomycin, with 0.1 mg/mL of gentamicin.\n(§4) The 12 human cancer cell lines used were obtained from the American Type Culture Collection (ATCC, Rockville, Md., USA). These 12 cell lines are:\nU-373MG (code ATCC: HTB-17) and U-87MG (code ATCC: HTB-14) which are two glioblastomas, Experimentally: 100 μl of a cell suspension containing 200 000 to 50 000 (depending on the cell type used) cells/mL of culture medium are inoculated in flat-bottomed 96-well multi-well plates and are incubated at 37° C. under an atmosphere comprising 5% CO2 and 70% humidity. […] The intensity of the resulting blue coloration, and thus of the conversion of the yellow MTT product into blue formazan by the cells that are still alive at the end of the experiment is quantified by spectrophotometry using a DYNATECH IMMUNOASSAY SYSTEM machine at wavelengths of 570 nm and 630 nm corresponding, respectively, to the maximum absorption wavelengths of formazan and to the background noise. […]"}, "[1]": {"test_system": "12 human tumor lines: U-87MG, U-373MG, SW 1088, T24, J82, HCT-15, LoVo, MCF7, T-47D, A549, A-427 and PC-3", "assay": "MTT cytotoxicity test, panel of the 12 human tumor lines", "type": "cell-based", "details": "Homo sapiens, read-out: average IC50", "description": "as §1, §2, §3, §4\nU-373MG (code ATCC: HTB-17) and U-87MG (code ATCC: HTB-14) which are two glioblastomas, SW1088 (code ATCC: HTB-12) which is an astrocytoma, A549 (code ATCC: CCL-185) and A-427 (code ATCC: HTB-53) which are two non-small-cell lung cancers, HCT-15 (code ATCC: CCL-225) and LoVo (code ATCC: CCL-229) which are two colorectal cancers, T-47D (code ATCC: HTB-133) and MCF7 (code ATCC: HTB-22) which are two breast cancers, J82 (code ATCC: HTB-1) and T24 (code ATCC: HTB-4) which are two bladder cancers, PC-3 (code ATCC: CRL-1435) which is a prostate cancer.\nExperimentally: 100 μl of a cell suspension containing 200 000 to 50 000 (depending on the cell type used) cells/mL of culture medium are inoculated in flat-bottomed 96-well multi-well plates and are incubated at 37° C. under an atmosphere comprising 5% CO2 and 70% humidity. After incubating for 24 hours, the culture medium is replaced with 100 μl of fresh medium containing either the various test compounds at concentrations ranging from 10^−5 to 10^−10 M or the solvent used to dissolve the test products (control condition). After incubating for 72 hours under the above conditions, the culture medium is replaced with 100 μl of a yellowish solution of MTT dissolved at a rate of 1 mg/mL in RPMI 1640. The microplates are reincubated for 3 hours at 37° C. and then centrifuged for 10 minutes at 400×g. The yellowish solution of MTT is removed and the blue formazan crystals formed at the cellular level are dissolved in 100 μl of DMSO. The microplates are then agitated for 5 minutes. The intensity of the resulting blue coloration, and thus of the conversion of the yellow MTT product into blue formazan by the cells that are still alive at the end of the experiment is quantified by spectrophotometry using a DYNATECH IMMUNOASSAY SYSTEM machine at wavelengths of 570 nm and 630 nm corresponding, respectively, to the maximum absorption wavelengths of formazan and to the background noise. Software built into the spectrophotometer calculates the average optical density values and also the standard deviation (Std. Dev.) and standard error of mean (SEM) values.\nThe inhibitory activity on the cell growth of the compounds of formula I and of formula II on the different tumor cell lines was compared with that of the natural product meridine (CRL 8348). All of the compounds of formula I and of formula II show significant inhibitory activity on the cell proliferation of the 12 human tumor lines: U-87MG, U-373MG, SW 1088, T24, J82, HCT-15, LoVo, MCF7, T-47D, A549, A-427 and PC-3 with an inhibitory concentration 50 (IC50) which is between 10^−6 M and 10^−10M, depending on the compounds and the tumor lines tested. By way of example, the values of the concentrations flanking the IC50 which are obtained on the various cell lines are given in table II: […]"}},
  "data": [
    {"compound": "O=C1c2ncccc2-c2nc3ccccc3c3ccnc1c23", "note": "[CRL 8299, Benzo[b]pyrido[4,3,2-de][1,7]phenanthroline-8-one]", "values": [
      {"measurement": "IC50", "setting": "U-87MG", "value": "< 0.1", "unit": "nM"},
      {"measurement": "IC50", "setting": "[1]", "value": 2.2, "unit": "nM"}
    ]}
  ]
}
